From ChEMBL document CHEMBL3045843, “Binding of Nicotinoids and the Related Compounds to the Insect Nicotinic Acetyicholine Receptor” (J Pestic Sci, 1992)

Columns and labels:
[1] = biological target: T1, Nicotinic acetylcholine receptor alpha 5 subunit (Musca domestica, UniProt A9XFY4); assay: Displacement of [3H]alpha-bungarotoxin from nAChR in Musca domestica (house fly) head membrane after 60 min by scintillation counting
T1 sequence (A9XFY4 whole entry): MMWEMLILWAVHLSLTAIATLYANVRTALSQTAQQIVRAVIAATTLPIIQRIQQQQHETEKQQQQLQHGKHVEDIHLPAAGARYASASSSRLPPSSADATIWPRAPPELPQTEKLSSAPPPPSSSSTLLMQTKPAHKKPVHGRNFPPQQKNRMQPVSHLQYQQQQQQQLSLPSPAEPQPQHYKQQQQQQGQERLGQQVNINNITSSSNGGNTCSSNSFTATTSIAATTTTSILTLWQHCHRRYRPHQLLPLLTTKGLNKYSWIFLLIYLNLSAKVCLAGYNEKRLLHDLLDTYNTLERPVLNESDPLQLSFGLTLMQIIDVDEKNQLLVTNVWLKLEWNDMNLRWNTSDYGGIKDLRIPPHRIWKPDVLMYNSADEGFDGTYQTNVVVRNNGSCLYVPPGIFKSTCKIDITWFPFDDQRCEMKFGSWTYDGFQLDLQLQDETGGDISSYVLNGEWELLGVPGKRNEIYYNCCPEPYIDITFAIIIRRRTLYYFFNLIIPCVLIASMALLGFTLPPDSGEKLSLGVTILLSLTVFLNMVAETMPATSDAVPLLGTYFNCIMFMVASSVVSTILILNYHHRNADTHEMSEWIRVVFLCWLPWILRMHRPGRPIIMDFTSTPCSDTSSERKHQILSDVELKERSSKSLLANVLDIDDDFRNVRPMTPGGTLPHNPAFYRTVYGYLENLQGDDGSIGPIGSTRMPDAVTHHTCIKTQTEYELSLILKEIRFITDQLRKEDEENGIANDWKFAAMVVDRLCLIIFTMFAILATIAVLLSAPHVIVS

[2] = Displacement of [3H]alpha-bungarotoxin from nAChR in honeybee head membrane after 60 min by scintillation counting; assay type: cell membranes, Apis mellifera
Musca domestica = assay: Insecticidal activity against Musca domestica (house fly) assessed as mortality relative to nicotine; assay type: functional
Acetylcholinesterase = Acetylcholinesterase (Musca domestica, UniProt Q7YWJ9); assay: Inhibition of Musca domestica (house fly) acetylcholinesterase
[3] = Disocciation constant, pKa of the compound at 37 degC; assay type: physicochemical
[4] = Disocciation constant, pKa of the compound at 25 degC; assay type: physicochemical

Sequence of Acetylcholinesterase (Q7YWJ9 whole entry): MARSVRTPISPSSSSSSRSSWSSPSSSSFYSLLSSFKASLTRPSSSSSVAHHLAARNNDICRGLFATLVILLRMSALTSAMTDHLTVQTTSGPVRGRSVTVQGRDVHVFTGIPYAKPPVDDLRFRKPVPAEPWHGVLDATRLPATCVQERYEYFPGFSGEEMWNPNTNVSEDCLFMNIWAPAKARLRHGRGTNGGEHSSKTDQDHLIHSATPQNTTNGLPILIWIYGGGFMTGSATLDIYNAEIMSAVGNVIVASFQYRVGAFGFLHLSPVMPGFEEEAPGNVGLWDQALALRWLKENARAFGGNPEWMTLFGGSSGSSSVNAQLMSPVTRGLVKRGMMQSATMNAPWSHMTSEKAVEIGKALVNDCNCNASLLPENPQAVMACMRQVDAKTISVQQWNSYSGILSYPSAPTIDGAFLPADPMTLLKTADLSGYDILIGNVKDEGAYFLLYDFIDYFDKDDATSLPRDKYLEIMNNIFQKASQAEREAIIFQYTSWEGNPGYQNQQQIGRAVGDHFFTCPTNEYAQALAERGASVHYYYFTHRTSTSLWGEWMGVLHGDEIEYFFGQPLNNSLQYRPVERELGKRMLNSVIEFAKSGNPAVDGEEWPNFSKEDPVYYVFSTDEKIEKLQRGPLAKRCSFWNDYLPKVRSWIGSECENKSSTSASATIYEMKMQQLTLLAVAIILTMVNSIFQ

Row | SMILES | Ki [1] | Ki [2] | fold change (FC) (Musca domestica) | IC50 (Acetylcholinesterase) | pKa [3] | pKa [4]
1 | CN(C)Cc1ccncc1 | > 1000 µM | > 1000 µM |  |  |  | 
2 | CCN(CC)Cc1ccccn1 |  |  | 0.1 | 3000 µM | 8.42 | 
3 | CCN(CC)Cc1ccncc1 |  |  | 0.1 | 7700 µM | 7.96 | 
4 | CN(C)Cc1ccccn1 | > 1000 µM | > 1000 µM |  |  |  | 
5 | CCNCc1cccnc1 | 380 µM | 289 µM | 0.34 | 7100 µM | 8.96 | 
6 | CCCNCc1cccnc1 | > 1000 µM | > 1000 µM | 0.15 | 17000 µM | 8.38 | 
7 | CC(C)NCc1cccnc1 | 226 µM | 103 µM | 0.46 | 3900 µM | 8.46 | 
8 | CCCCNCc1cccnc1 | > 1000 µM | 406 µM | 0.16 | 23000 µM | 8.66 | 
9 | CCN(CC)Cc1cccnc1 | 450 µM | 155 µM | 0.46 | 890 µM | 8.12 | 
10 | CCCN(CCC)Cc1cccnc1 | 220 µM | 200 µM | 0.16 | 1700 µM | 8.13 | 
11 | CCCCN(CCCC)Cc1cccnc1 | > 1000 µM | 175 µM | 0.28 | 2800 µM | 8.08 | 
12 | c1cncc(CN2CCCCC2)c1 | 67.6 µM | 48.7 µM | 0.79 | 1500 µM | 8.16 | 
13 | c1cncc(CN2CCOCC2)c1 | > 1000 µM | > 1000 µM | 0.04 |  | 5.76 | 
14 | CCOc1ccccc1Cn1nc(OC)oc1=O | > 100 µM | > 100 µM |  |  |  | 
15 | COc1nn(-c2ccc(C)cc2OC)c(=O)o1 | > 1000 µM | > 1000 µM |  |  |  | 
16 | N#C/N=C1/NCCN1/C=N/c1ccccc1 | > 500 µM | > 500 µM |  |  |  | 
17 | O=[N+]([O-])C(/C=N/c1ccccc1)=C1NCCN1 | > 500 µM | > 500 µM |  |  |  | 
18 | CN(C)Cc1cccnc1 | 201 µM | 208 µM | 0.45 | 5100 µM | 7.76 | 
19 | CNCc1cccnc1 | 600 µM | 377 µM | 0.3 | 31000 µM | 8.3 | 
20 | c1cncc(C2CCCCN2)c1 (racemic) [DL-ANABASINE] |  |  | 0.6 |  |  | 
21 | CN1CCC[C@H]1c1cccnc1 (racemic) [NICOTINE] |  |  | 1 | 620 µM |  | 
22 | c1cncc([C@@H]2CCCN2)c1 (racemic) [NORNICOTINE] | 8.77 µM | 7.61 µM | 0.3 | 9700 µM |  | 
23 | O=[N+]([O-])C=C1NCCN1 [2-(NITROMETHYLENE)IMIDAZOLIDINE] | > 1000 µM | > 1000 µM |  |  |  | 
24 | c1cncc([C@@H]2CCCCN2)c1 [ANABASINE] |  |  |  |  | 8.48 | 8.7

Row | SMILES | Ki [1] | Ki [2] | fold change (FC) (Musca domestica) | IC50 (Acetylcholinesterase) | pKa [3] | pKa [4]
25 | COC(=O)C1=CCCN(C)C1 [ARECOLINE] | 516 µM | 240 µM |  |  |  | 
26 | CN1[C@@H]2CC[C@H]1C[C@@H](OC(=O)C(CO)c1ccccc1)C2 (stereo partly drawn) [ATROPINE] | 32.5 µM | 26.3 µM |  |  |  | 
27 | C[N+](C)(C)CCOC(N)=O [CARBACHOL] | 212 µM | 175 µM |  |  |  | 
28 | CCC[C@H]1CCCCN1 [CONIINE] | > 1000 µM | 262 µM |  |  |  | 
29 | CN1C(=O)CC[C@H]1c1cccnc1 [COTININE] | > 1000 µM | > 1000 µM | 0.03 |  |  | 4.5
30 | O=c1cccc2n1C[C@@H]1CNC[C@H]2C1 [CYTISINICLINE] | 1.23 µM | 0.65 µM |  |  |  | 
31 | C[N+](C)(C)CCCCCCCCCC[N+](C)(C)C [DECAMETHONIUM] | 103 µM | 224 µM |  |  |  | 
32 | C1=C(c2cccnc2)NCC1 [DIHYDRONICOTYRINE] | 1.92 µM | 1.27 µM | 2.6 | 350 µM | 7.21 | 7.4
33 | C[N+]1(C)CCN(c2ccccc2)CC1 [DIMETHYLPHENYLPIPERAZINIUM] | 86.3 µM | 49.5 µM |  |  |  | 
34 | c1cncc(C2CCCCN2)c1 (stereo not drawn) [DL-ANABASINE] | 3.71 µM | 3.91 µM |  | 3900 µM |  | 
35 | O=[N+]([O-])/N=C1\NCCN1Cc1ccc(Cl)nc1 [IMIDACLOPRID] | 7.47 µM | 2.53 µM |  |  |  | 
36 | CN1[C@@H](CC(=O)c2ccccc2)CCC[C@H]1C[C@H](O)c1ccccc1 [LOBELINE] | 12.8 µM | 9.13 µM |  |  |  | 
37 | CNC1(C)C2CCC(C2)C1(C)C (stereo not drawn) [MECAMYLAMINE] | > 1000 µM | 453 µM |  |  |  | 
38 | c1cncc(C2=NCCC2)c1 [MYOSMINE] | > 1000 µM | > 1000 µM | 0.36 | 6800 µM | 5.23 | 5.5
39 | c1cncc(CN2CCCC2)c1 [N-(3-PYRIDYLMETHYL)PYRROLIDINE] | 16.4 µM | 14.3 µM | 0.43 | 1400 µM | 8.11 | 
40 | CN(C)C1CSSC1 [NEREISTOXIN] | 187 µM | 254 µM |  |  |  | 
41 | CN1CCC[C@H]1c1cccnc1 [NICOTINE] | 2.48 µM | 1.48 µM |  | 2600 µM | 7.66 | 7.9
42 | Cn1cccc1-c1cccnc1 [NICOTYRINE] | > 1000 µM | > 1000 µM | 0.18 | 2300 µM | 4.5 | 4.7
43 | c1cncc([C@@H]2CCCN2)c1 [NORNICOTINE] |  |  |  | 4200 µM | 8.76 | 9
44 | C[N+]1(CCCCC[N+]2(C)CCCC2)CCCC1 [PENTOLINIUM] | 108 µM | 72.2 µM |  |  |  | 
45 | CN1CCC[C@@H]1c1cccnc1 [R-NICOTINE] | 59.9 µM | 43.7 µM | 1 | 230 µM |  | 
46 | O=C1N(Cc2ccccc2)C2C[S+]3CCCC3C2N1Cc1ccccc1 (stereo not drawn) [TRIMETHAPHAN] | 2.75 µM | 5.79 µM |  |  |  | 
47 | COc1cc2c3cc1Oc1cc(ccc1O)C[C@@H]1c4c(cc(OC)c(O)c4Oc4ccc(cc4)C[C@@H]3N(C)CC2)CC[N+]1(C)C [TUBOCURARINE] | 1.88 µM | 3.57 µM |  |  |  | 
